The values that follow come from paper PMC4931907 (eLife, 2016).

The conditions of data set [1]: cited from earlier work.
The next data set addresses T1, p300 (Homo sapiens, UniProt Q09472).
T1 construct: in vitro acetylation assays with purified histones and a recombinant p300 catalytic domain; purchased Enzo Life Sciences
T1 sequence (Q09472 1287-1663 limits assumed): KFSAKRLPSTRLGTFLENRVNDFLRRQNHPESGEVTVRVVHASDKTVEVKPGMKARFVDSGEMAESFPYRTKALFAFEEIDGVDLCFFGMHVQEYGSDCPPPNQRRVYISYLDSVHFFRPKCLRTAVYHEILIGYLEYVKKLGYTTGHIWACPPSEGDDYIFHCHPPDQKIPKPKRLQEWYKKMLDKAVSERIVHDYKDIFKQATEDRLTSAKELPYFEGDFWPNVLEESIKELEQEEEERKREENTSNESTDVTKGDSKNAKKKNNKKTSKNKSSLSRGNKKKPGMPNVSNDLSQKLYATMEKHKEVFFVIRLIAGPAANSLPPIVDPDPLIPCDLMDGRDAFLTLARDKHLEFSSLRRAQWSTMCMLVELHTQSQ
In words: In vitro HAT assay with recombinant p300, histones and 14C acetyl-CoA. The data set is classed as biochemical. As to conditions: for IC50: in vitro HAT assay, recombinant p300 and histones, read-out: IC50, p300 acetyltransferase activity. Here is the method: To determine whether salicylate inhibits p300 and other acetyltransferases, we used in vitro acetylation assays with purified histones and a recombinant p300 catalytic domain.
Figure 1. Salicylate inhibits CBP/p300 in vitro. (A) Recombinant p300, CBP, GCN5, or PCAF and histones were incubated with ^14C-labeled acetyl-CoA with or without sodium salicylate, separated by SDS-PAGE, analyzed by autoradiography, and quantified with Image J software. Acetylation levels are relative to those in untreated controls. (B) Thermal stability assay for sodium salicylate binding to the p300 HAT domain. Tm, melting temperature. (C) and (D) Lineweaver-Burk plots showing kinetic analysis of p300 acetyltransferase inhibition by sodium salicylate. Histone acetylation was measured with several concentrations of acetyl-CoA (C) or histone (D) in the presence or absence of sodium salicylate. DOI: http://dx.doi.org/10.7554/eLife.11156.003 Figure 1—figure supplement 1. […] (A) Dose-response data for inhibition of p300 by salicylate and salicyl-CoA. Acetylation of an H4(3–14) peptide was monitored using direct microfluidic mobility shift analysis as previously described ([Montgomery et al., 2014]; [Fanslau et al., 2010]). Error is given as the 95% confidence interval. […] Error is given as the 95% confidence interval. DOI: http://dx.doi.org/10.7554/eLife.11156.004 [drawing 1] TEXT PRINTED IN THE PICTURE: (A) Salicylate: p300 IC50 (mM): 6.12; Confidence Interval [CI95] (mM): 5.2–7.2 | (A) Salicyl-CoA: p300 IC50 (mM): […]; Confidence Interval [CI95] […] (mM): 0.78–1.4 | (B) Diflunisal-CoA: p300 IC50 (mM): 0.02; Confidence Interval [CI95] (mM): 0.02–0.03
Recombinant HAT ([…]), either p300, CBP, PCAF, or GCN5 (Enzo Life Sciences), and 10 µg of histones (Sigma) were incubated with sodium salicylate (Sigma) in reaction buffer (50 mM HEPES, pH 8.0, 10% glycerol, 1 mM) at 30°C for 30 min and then with 0.1 mCi of ^14C acetyl-CoA at 30°C for 60 min. Reactions were stopped by adding 6x sample buffer and analyzed by SDS-PAGE. The gels were dried, and signals were obtained by autoradiography and quantified with Image J software. To quantify acetylated histone levels, we generated a standard curve from signals of lanes loaded with […] of ^14C labeled histones.

A further data set concerns Kasumi-1 cells. In words: Growth and apoptosis of Kasumi-1 cells (trypan blue, annexin V/7AAD). The data set is classed as cell-based, human. The settings on record: for Apoptosis, annexin V/7AAD double staining: Kasumi-1, 24 hr. The text has this: (§1) Previously, we reported that the leukemogenicity of the AML1-ETO fusion protein, generated by a t(8;21) translocation in acute myelogenous leukemia, is regulated by p300-mediated acetylation of lysine 43 of the fusion protein ([Wang et al., 2011]).
(§2) Figure 4. […] (B) Kasumi-1 and AE9a cells treated or not with salicylate were counted by trypan-blue exclusion under light microscopy. […] The percentage of sub-G1 cells is shown. […] Cells were counted by trypan-blue exclusion under light microscopy. […] DOI: http://dx.doi.org/10.7554/eLife.11156.011
(§3) HEK293T cells (ATCC) were maintained in DMEM supplemented with 10% FCS. The viability of Kasumi-1 cells and AE9a mouse leukemia cells was assessed in triplicate by trypan blue exclusion. The Kasumi cell line was isolated and characterized by one of the coauthors (S. Nimer) ([Becker et al., 2008]). All cell lines were tested annually for mycoplasma contamination. Only negative mycoplasma cultures were used during the conduct of these experiments.
(§4) Apoptosis was analyzed with an Annexin V-APC/7AAD Apoptosis kit (Becton-Dickinson) according to manufacturer’s instructions. To assess the distribution of nuclear DNA content in the cell-cycle analysis, cells were collected, washed in PBS, fixed overnight in 75% ethanol at –20°C, treated with 1% RNase A for at least 15 min at 37°C, and stained with […] propidium iodide. To monitor CD34 expression, the cells were stained with an allophycocyanin-conjugated anti-CD34 antibody (Becton Dickinson). To monitor CD11b expression, the cells were stained with a phycoerythrin-conjugated anti-CD11b antibody (Beckman-Coulter). To monitor C-kit and Mac-1 expression, the cells were stained with allophycocyanin-conjugated anti-C-kit and phycoerythrin-conjugated anti-Mac-1 antibodies (Becton-Dickinson). Cells were sorted with a Becton-Dickinson FACSCalibur, and the data were analyzed with FlowJo software.

A further data set has as its system acetyl p53K382. In words: Acetylation of overexpressed p53 in HEK293T cells, Western blot. In kind it is cell-based. As to conditions: HEK293T transfected with p300 and p53, 24 hr.
Text: Figure 2.
For orientation: In western blotting, separated proteins are transferred to a membrane and probed.

Data set [2] has as its system AE9a-driven AML cell line. In words: Growth and apoptosis of AE9a cells (trypan blue, annexin V/7AAD). In kind it is cell-based, mouse. The settings on record: for Apoptosis, annexin V/7AAD double staining: 24 hr.
Text: as §1, §2, §3, §4

A value given as a limit tells only on which side of the number the result lay.

`O=C(O)c1cc(-c2ccc(F)cc2F)ccc1O` [diflunisal]: in data set [1] (after daily oral administration, ref Nuernberg et al., 1991, Mano et al., 2006), the “Plasma concentrations of diflunisal” value was 150 to 350 µM. For the same compound, the concentration for half-maximal inhibition (IC50) on p300 came to 0.996 mM. Also, the “Apoptosis, annexin V/7AAD double staining” value (in the data set with Kasumi-1 cells; in data set [2]) was “increased apoptosis in a dose-dependent manner” throughout. For the same compound, in the data set with Kasumi-1 cells (trypan-blue exclusion counts), the Kasumi-1 cell growth entry is “inhibition of growth”. Besides, the “Acetylation of p53 K382” value in the data set on acetyl p53K382 was “suppressed acetylation”.

`O=C(O)c1ccccc1O` [salicylate, salicylic acid]: in data set [1] (humans after oral administration, ref Goldfine et al., 2010, 2013), the “Plasma concentrations of salicylate” value was 1000 to 3000 µM. For the same compound, in data set [1] (patients taking salicylic acid 3–4 g/day, no reference given), the “Salicylate plasma concentrations in patients” value was 1 to 3 mM. In addition, the “Mode of p300 inhibition against acetyl-CoA” value at p300 (Lineweaver-Burk, various concentrations of acetyl-CoA) was “direct competitive p300 inhibition against acetyl-CoA”. In addition, on p300 (Lineweaver-Burk, various concentrations of histone), the “Mode of p300 inhibition against histones” value is listed as “noncompetitive inhibition against histones”. In addition, the half-maximal inhibitory concentration (IC50) on p300 is 10.2 mM. For the same compound, the “Apoptosis, annexin V/7AAD double staining” value (with Kasumi-1 cells; in data set [2]) was “increased apoptosis” each time. In addition, the “Concentration inhibiting cell proliferation” value is given as not below 1 mM with Kasumi-1 cells (Kasumi-1, trypan-blue exclusion counts) and not below 1 mM in data set [2] (trypan-blue exclusion counts). In addition, the “Acetylation of p53 K382” value in the data set on acetyl p53K382 is given as “decreased acetylation”.

Broadly, the IC50 is the concentration that inhibits the measured activity by half.
